These are literature values, as cited in patent US20250339472A1 (priority 2024, published 2025).

Like-named read-outs stand apart in the source and are kept apart here.

For series [1] the following is noted: dog, in vivo.
For a further series, the target named is acetylcholinesterase (Homo sapiens, UniProt P22303).
Sequence of acetylcholinesterase (P22303 32-614, species assumed): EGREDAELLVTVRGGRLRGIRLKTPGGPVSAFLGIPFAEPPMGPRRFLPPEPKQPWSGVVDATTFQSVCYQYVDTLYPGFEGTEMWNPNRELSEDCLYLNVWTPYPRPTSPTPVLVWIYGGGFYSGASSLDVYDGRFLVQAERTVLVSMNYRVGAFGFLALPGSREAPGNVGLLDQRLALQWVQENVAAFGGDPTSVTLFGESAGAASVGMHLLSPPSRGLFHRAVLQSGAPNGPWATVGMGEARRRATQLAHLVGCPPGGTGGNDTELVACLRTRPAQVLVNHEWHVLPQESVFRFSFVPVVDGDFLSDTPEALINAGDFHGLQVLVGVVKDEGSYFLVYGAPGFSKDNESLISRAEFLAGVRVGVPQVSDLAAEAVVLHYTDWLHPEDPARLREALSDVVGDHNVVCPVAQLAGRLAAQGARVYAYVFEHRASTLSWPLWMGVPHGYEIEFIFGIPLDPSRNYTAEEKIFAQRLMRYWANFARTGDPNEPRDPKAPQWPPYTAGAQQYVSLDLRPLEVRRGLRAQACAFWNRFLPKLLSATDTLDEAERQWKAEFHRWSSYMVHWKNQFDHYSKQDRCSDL

With `CC1=C(/C=C/C(C)=C/C=C/C(C)=C/C=C/C=C(C)/C=C/C=C(C)/C=C/C2=C(C)C(=O)[C@@H](O)CC2(C)C)C(C)(C)C[C@H](O)C1=O` [Astaxanthin—AstaReal®, Astaxanthin], the efficacy levels in series [1] is recorded as 0.3 mg/kg/day.
In the case of `COc1cc(/C=C/C(=O)CC(=O)/C=C/c2ccc(O)c(OC)c2)ccc1O` [Curcumin], the “inhibition of acetylcholinesterase activity” value on acetylcholinesterase was “inhibits”.
As to Hyaluronic Acid, the Safety levels reads like this: (more than 26 kg body weight) 54 mg of HA per day; (up to 26 kg body weight) 27 mg of HA per day.
